Assay results: patent US11198704B2, “Butane-tetraol-based amphiphiles and uses thereof” (Industry-University Cooperation Foundation Hanyang …, priority 2016, dated 2021)
Entries after “also recorded” stand apart in the source; their conditions may differ.

How the values were obtained:
[1] = Hydrodynamic radius and size distribution of micelles by dynamic light scattering (DLS); format: physicochemical; conditions: detergent 1.0% by weight
Method: A method of measuring the radius of the micelles is not particularly limited, but the radius of the micelles may be measured using methods well known in the related art. For example, the radius of the micelles may be measured through a dynamic light scattering (DLS) experiment.
(§1) Specifically, the critical micelle concentration (CMC) was measured using diphenylhexatriene (DPH) as a fluorescent stain, and the hydrodynamic radii (Rh) of the micelles formed by each preparation (1.0% by weight) were measured through a dynamic light scattering (DLS) experiment.

[2] = Critical micelle concentration (CMC) using diphenylhexatriene (DPH) fluorescent stain; format: physicochemical; conditions: aqueous solution
Method: A method of measuring the CMC is not particularly limited, but the CMC may be measured using methods well known in the related art. For example, the CMC may be measured by a fluorescence staining method using diphenylhexatriene (DPH).
as §1

[3] = target: T1, human β2 adrenergic receptor (β2AR) (Homo sapiens, UniProt P07550); assay: Structural stability of β2AR, [3H]-dihydroalprenolol ([3H]-DHA) binding; format: biochemical; conditions: BTMs without CHS, DDM with CHS; for initial ligand-binding characteristics of β2AR ([3H]-DHA): CMC+0.2% by weight
T1 construct: made in house
Method: An experiment for determining the structural stability of a human β2 adrenergic receptor (β2AR) and a G-protein-coupled receptor (GPCR) by BTMs was performed. That is, a receptor purified with DDM was diluted with a buffer solution containing only each of the BTMs without cholesteryl hemisuccinate (CHS) or a buffer solution containing DDM with CHS. The final compound concentration was CMC+0.2% by weight, and the ligand-binding characteristics of the receptor were determined through [^3H]-dihydroalprenolol ([^3H]-DHA) binding.
Specifically, a radioactive ligand binding test was performed using the following method. β2AR was purified with 0.1% DDM (D. M. Rosenbaum et al., Science, 2007, 318, 1266-1273.), and finally concentrated to approximately 10 mg/mL (approximately 200 μM). A master binding mixture containing 10 nM [^3H]-dihydroalprenolol (DHA) supplemented with 0.5 mg/mL BSA in each 0.2% amphiphilic compound (DDM or BTMs) was prepared using the β2AR purified with DDM. The ligand-binding characteristics of the receptor purified with the amphiphilic compound at 0.2 pmol was monitored at regular intervals while the receptor was incubated at room temperature for 3 days. The ligand-binding characteristics of the receptor were determined using a water-soluble radioactive ligand binding assay as will be described below. The receptor purified with DDM or each of the BTMs was incubated with 10 nM [^3H]-DHA at room temperature for 30 minutes. The mixture was loaded on a G-50 column, and flow-through fractions were collected using 1 mL of a binding buffer (20 mM HEPES (pH 7.5) supplemented with 0.5 mg/mL BSA and 20×CMC of each amphiphilic compound, 100 mM NaCl). Then, the G-50 column was filled with 15 mL of a scintillation fluid. Receptor-bound [^3H]-DHA was counted using a scintillation counter (Beckman). Non-specific binding of [^3H]-DHA was determined by adding 2 μM of alprenolol (Sigma) in the same binding reaction. The binding affinity of [^3H]-DHA was plotted on a column graph, and each experiment was performed in triplicate.

[4] = system: uric acid-xanthine/H+ symporter (UapA), UapAG411VΔ1-11 GFP fusion; assay: Thermal stability of UapA solubilized by detergent, fluorescence size exclusion chromatography (FSEC); design: species or system Aspergillus nidulans; conditions: detergent 1.0% by weight; 40° C. for 10 minutes
Method: A UapA protein is a uric acid-xanthine/H^+ symporter in Aspergillus nidulans. An experiment for measuring structural stability of a uric acid-xanthine/H^+ symporter (UapA) by BTMs in an aqueous solution was performed. The structural stability of UapA was measured using fluorescence size exclusion chromatography (FSEC).
Specifically, UapAG411VΔ1-11 (hereinafter referred to as ‘UapA’) was expressed as a GFP fusion protein in a Saccharomyces cerevisiae FGY217 strain, and divided into a sample buffer (20 mM Tris (pH 7.5), 150 mM NaCl, 0.03% DDM, and 0.6 mM xanthine). This procedure was performed according to the method disclosed in the article by J. Leung et al. (Mol. Membr. Biol. 2013, 30, 32-42). Membranes containing UapA were re-suspended in PBS (10 mM imidazole pH 8.0, 150 mM NaCl, and 10% glycerol), and a concentration of proteins was measured. […] 100 μL aliquots were removed from the respective tubes, and fluorescence reading on each sample was performed before and after the aliquots were ultracentrifuged at 150,000 g for 10 minutes to remove insoluble matter. Water-soluble fractions remaining under each condition were subjected to fluorescence SEC (FSEC) using a Superose 6 column (GE Healthcare) equilibrated with a buffer containing a proper preparation (DDM or BTM).

[5] = target: T2, melibiose permease (MelB) (Salmonella typhimurium, UniProt P30878); assay: MelB extraction and thermostability, SDS-PAGE and Western Blotting of the dissolved protein; conditions: 55° C., 90 minutes; detergent 1.5% by weight
T2 construct: made in house; host or cells: E. coli DW2
Method: The MelB protein was extracted from a membrane using BTM-C11s or DDM, and the amount and structure of the extracted protein were analyzed through SDS-PAGE and Western Blotting. A concentration of the amphiphilic compound used was 1.5% by weight, and the protein was extracted at four temperatures (0, 45, 55, and 65° C.), and incubated at the same temperature for 90 minutes. Thereafter, an amount of the protein remaining dissolved in an aqueous solution was measured to evaluate two types of performance: protein extraction efficiency and stabilization ability of the compound. The amount of the protein extracted and stabilized with each of the amphiphilic molecules is expressed as a relative value (%) of the entire amount of proteins contained in a membrane sample which is not treated with the amphiphilic molecules.
Specifically, Salmonella typhimurium melibiose permease (MelBSt) having a 10-His tag at the C-terminus thereof was expressed in E. coli DW2 cells (AmelB and AlacZY) using a plasmid pK95ΔAHB/WT MelBSt/CH10. Cell growth and membrane preparation were performed according to the method disclosed in the article by A. S. Ethayathulla et al. (Nat. Commun. 2014, 5, 3009). A protein assay was performed using a Micro BCA kit (Thermo Scientific, Rockford, Ill.). An effect of the isomers (A-BTM-C11, B-BTM-C11, and M-BTM-C11) of the BTM-C11s or DDM on the MelBSt stability was evaluated using the protocol disclosed in P. S. Chae et al. (Nat. Methods 2010, 7, 1003-1008). A membrane sample (having a final protein concentration of 10 mg/mL) containing MelBSt was incubated at four temperatures (0, 45, 55, and 65° C.) for 90 minutes in a solubilizing buffer (20 mM sodium phosphate, pH 7.5, 200 mM NaCl, 10% glycerol, and 20 mM melibiose) containing 1.5% (w/v) DDM or the BTM-C11 isomers. To remove insoluble matter, the sample was ultracentrifuged at 355,590 g at 4° C. for 45 minutes using a Beckman Optima™ MAX ultracentrifuge equipped with a TLA-100 rotor. The dissolved fraction was separated by 16% SDS-PAGE, and then immunoblotted with a Penta-His-HRP antibody (Qiagen, Germantown, Md.). The membrane fraction containing 20 μg of untreated proteins was used to represent the entire MelB, and the treated samples were loaded in each well at the same volume. MelBSt was measured by an ImageQuant LAS 4000 Biomolecular imager (GE Health Care Life Sciences) using a SuperSignal West Pico chemiluminescent substrate.

T1 sequence (P07550 whole entry): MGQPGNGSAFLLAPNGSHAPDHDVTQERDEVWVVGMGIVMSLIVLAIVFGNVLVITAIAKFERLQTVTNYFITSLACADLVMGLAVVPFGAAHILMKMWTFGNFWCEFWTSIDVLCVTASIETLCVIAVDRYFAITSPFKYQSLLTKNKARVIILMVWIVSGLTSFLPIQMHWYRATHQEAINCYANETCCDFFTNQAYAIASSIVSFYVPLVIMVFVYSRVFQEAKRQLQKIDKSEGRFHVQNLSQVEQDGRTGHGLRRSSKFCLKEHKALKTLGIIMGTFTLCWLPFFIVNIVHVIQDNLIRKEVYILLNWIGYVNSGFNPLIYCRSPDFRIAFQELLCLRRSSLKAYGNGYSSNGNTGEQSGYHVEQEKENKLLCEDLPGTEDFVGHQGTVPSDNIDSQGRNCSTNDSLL
T2 sequence (P30878 whole entry): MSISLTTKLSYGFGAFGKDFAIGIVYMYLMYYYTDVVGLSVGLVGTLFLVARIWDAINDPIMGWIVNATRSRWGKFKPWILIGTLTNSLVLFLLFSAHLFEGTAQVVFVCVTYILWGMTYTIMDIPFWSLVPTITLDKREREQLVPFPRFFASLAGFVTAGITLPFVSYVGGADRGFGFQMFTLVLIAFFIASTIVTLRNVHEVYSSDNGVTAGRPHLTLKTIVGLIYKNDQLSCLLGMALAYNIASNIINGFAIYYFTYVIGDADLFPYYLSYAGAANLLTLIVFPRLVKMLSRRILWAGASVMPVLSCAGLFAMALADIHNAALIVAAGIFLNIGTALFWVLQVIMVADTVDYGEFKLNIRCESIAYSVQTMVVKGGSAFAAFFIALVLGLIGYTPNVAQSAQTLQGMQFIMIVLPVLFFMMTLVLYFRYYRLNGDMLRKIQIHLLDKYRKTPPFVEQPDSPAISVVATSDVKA

SMILES	Rh (nm), hydrodynamic radius of micelles [1] [nm]	CMC [2] [mM]	CMC (% by weight) [2] [% by weight]	initial ligand-binding characteristics of β2AR ([3H]-DHA) [3]	UapA monodisperse peak in FSEC (extraction and structural stability) [4]	amount of MelB protein remaining dissolved in aqueous solution [5]	remaining ligand-binding ability of β2AR, % of initial ([3]; after 3 days of incubation at room temperature)	effect on the long-term stability of the receptor (β2AR) ([3]; room temperature, 3 days)
CCCCCCCCCOC[C@H](O[C@@H]1OC(CO)[C@@H](O[C@H]2OC(CO)[C@@H](O)C(O)C2O)C(O)C1O)[C@H](COCCCCCCCCC)O[C@@H]1OC(CO)[C@@H](O[C@H]2OC(CO)[C@@H](O)C(O)C2O)C(O)C1O (stereo partly drawn) [A-BTM-C9]	2.9 ± 0.04	~0.021	~0.0022	–	–	–	–	–
CCCCCCCCCCOC[C@H](O[C@@H]1OC(CO)[C@@H](O[C@H]2OC(CO)[C@@H](O)C(O)C2O)C(O)C1O)[C@H](COCCCCCCCCCC)O[C@@H]1OC(CO)[C@@H](O[C@H]2OC(CO)[C@@H](O)C(O)C2O)C(O)C1O (stereo partly drawn) [A-BTM-C10]	3.2 ± 0.07	~0.011	~0.0012	–	–	–	–	–
CCCCCCCCCCCOC[C@H](O[C@@H]1OC(CO)[C@@H](O[C@H]2OC(CO)[C@@H](O)C(O)C2O)C(O)C1O)[C@H](COCCCCCCCCCCC)O[C@@H]1OC(CO)[C@@H](O[C@H]2OC(CO)[C@@H](O)C(O)C2O)C(O)C1O (stereo partly drawn) [A-BTM-C11]	3.5 ± 0.03	~0.007	~0.0008	slight decrease in the ligand-binding characteristics	–	–	–	–
CCCCCCCCCCOC[C@@H](O[C@@H]1OC(CO)[C@@H](O[C@H]2OC(CO)[C@@H](O)C(O)C2O)C(O)C1O)[C@@H](COCCCCCCCCCC)O[C@@H]1OC(CO)[C@@H](O[C@H]2OC(CO)[C@@H](O)C(O)C2O)C(O)C1O (stereo partly drawn) [B-BTM-C10]	3.1 ± 0.07	~0.013	~0.0014	–	–	–	–	–
CCCCCCCCCCCOC[C@@H](O[C@@H]1OC(CO)[C@@H](O[C@H]2OC(CO)[C@@H](O)C(O)C2O)C(O)C1O)[C@@H](COCCCCCCCCCCC)O[C@@H]1OC(CO)[C@@H](O[C@H]2OC(CO)[C@@H](O)C(O)C2O)C(O)C1O (stereo partly drawn) [B-BTM-C11]	3.5 ± 0.08	~0.008	~0.0009	–	–	–	–	–
CCCCCCCCCOC[C@H](O[C@@H]1OC(CO)[C@@H](O[C@H]2OC(CO)[C@@H](O)C(O)C2O)C(O)C1O)[C@@H](COCCCCCCCCC)O[C@@H]1OC(CO)[C@@H](O[C@H]2OC(CO)[C@@H](O)C(O)C2O)C(O)C1O (stereo partly drawn) [M-BTM-C9]	3.2 ± 0.05	~0.017	~0.0017	–	–	–	–	–
CCCCCCCCCCOC[C@H](O[C@@H]1OC(CO)[C@@H](O[C@H]2OC(CO)[C@@H](O)C(O)C2O)C(O)C1O)[C@@H](COCCCCCCCCCC)O[C@@H]1OC(CO)[C@@H](O[C@H]2OC(CO)[C@@H](O)C(O)C2O)C(O)C1O (stereo partly drawn) [M-BTM-C10]	3.5 ± 0.07	~0.008	~0.0009	–	–	–	–	–
CCCCCCCCCCCOC[C@H](O[C@@H]1OC(CO)[C@@H](O[C@H]2OC(CO)[C@@H](O)C(O)C2O)C(O)C1O)[C@@H](COCCCCCCCCCCC)O[C@@H]1OC(CO)[C@@H](O[C@H]2OC(CO)[C@@H](O)C(O)C2O)C(O)C1O (stereo partly drawn) [M-BTM-C11]	4.7 ± 0.27	~0.006	~0.0006	slight decrease in the ligand-binding characteristics	significant increase in the recovery of monodisperse peaks; also recorded: most excellent effect	complete solubility	approximately 70%	much more superior effect in maintaining the long-term stability of β2AR, compared to DDM
